Test results taken from patent US8961944B2, “Use of delta-tocopheryl-carbohydrate as a depigmenting agent” (Pierre Fabre Dermo-Cosmetique, priority 2009, dated 2015).
Read-outs that look alike come from different tables or passages of the source.

Assays:
B16-F10 cells = assay: Inhibition of α-MSH-stimulated melanogenesis (intracellular melanin) in B16-F10 cells; assay type: cell-based; settings: for percent inhibition of intracellular melanin / inhibition at 50 µM: 50 μM; for percent inhibition of intracellular melanin / inhibition at 10 µM / inhibition at 50 µM: α-MSH (0.1 μM) stimulation; for inhibition at 10 µM / inhibition at 50 µM: Mus musculus, read-out: percent inhibition of intracellular melanin
Experimental: B16-F10 cells are inoculated in 96-well plates in DMEM (Dulbecco's Modified Eagle's Medium) supplemented with Foetal Calf Serum (FCS) and incubated for 24 hours at 37° C., 5% CO2. Melanogenesis is stimulated by α-MSH (0.1 μM) for 3 or 5 days. Each concentration of active substance is tested in triplicate. Total melanin and intracellular melanin dissolved in lysis buffer are then assayed by reading absorbance at 405 nm. Total proteins are assayed in the lysate according to protocol “SRD/TO/154/012” and the results are expressed in mg melanin/mg proteins. The percentage of activity is calculated as follows: % inhibition=[([…])/NMC]×100 NMC being the normalised mean of the control NMT being the normalised mean of the treated

glucocerebrosidase = target: T1, glucocerebrosidase (Homo sapiens, UniProt P04062); settings: compared with reference derivative 4-methylumbelliferyl glucopyranoside; cited from earlier work
T1 sequence (P04062 40-536): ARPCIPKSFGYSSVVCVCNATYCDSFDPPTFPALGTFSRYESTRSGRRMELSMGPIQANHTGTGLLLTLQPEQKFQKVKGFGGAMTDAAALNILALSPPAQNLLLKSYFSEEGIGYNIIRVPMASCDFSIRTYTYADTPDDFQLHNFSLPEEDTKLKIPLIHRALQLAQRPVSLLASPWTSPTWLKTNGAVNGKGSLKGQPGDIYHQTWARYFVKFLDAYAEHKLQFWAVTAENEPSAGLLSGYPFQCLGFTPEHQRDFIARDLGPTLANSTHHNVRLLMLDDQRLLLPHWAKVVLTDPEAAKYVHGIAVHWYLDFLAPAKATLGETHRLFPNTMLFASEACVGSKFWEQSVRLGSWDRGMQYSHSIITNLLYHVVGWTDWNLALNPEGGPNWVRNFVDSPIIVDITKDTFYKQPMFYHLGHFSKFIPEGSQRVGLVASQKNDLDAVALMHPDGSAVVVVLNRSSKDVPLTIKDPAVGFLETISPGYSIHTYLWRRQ

[1] = compared with delta-tocopherol; cited from earlier work

**Q.** Which “percent inhibition of intracellular melanin” value (B16-F10 cells; 3 days) does the source give for `Cc1cc(O)cc2c1O[C@](C)(CCC[C@H](C)CCC[C@H](C)CCCC(C)C)CC2` [Delta-tocopherol, delta-tocopherol, reference compound] here?
**A.** 41%

**Q.** And the “percent inhibition of intracellular melanin” value (B16-F10 cells; 5 days)?
**A.** 48%

**Q.** Which inhibition at 10 µM (B16-F10 cells; B16-F10, 72 h, 3 days) does the source give for `Cc1cc(O[C@@H]2O[C@H](CO)[C@@H](O)[C@H](O)[C@H]2O)cc2c1O[C@](C)(CCC[C@H](C)CCC[C@H](C)CCCC(C)C)CC2` [Delta-tocopheryl-glucopyranoside, delta-tocopheryl-glucopyranoside] here?
**A.** 22%

**Q.** What about the inhibition at 50 µM (B16-F10 cells; B16-F10, 72 h, 3 days) of the same molecule?
**A.** 68%

**Q.** And the inhibition at 10 µM (B16-F10 cells; B16-F10, 120 h, 5 days)?
**A.** 38%

**Q.** And the inhibition at 50 µM (B16-F10 cells; B16-F10, 120 h, 5 days)?
**A.** 90%

**Q.** And the depigmenting activity (B16-F10 cells; compared with delta-tocopherol (see example 1))?
**A.** quite higher than that of delta-tocopherol

**Q.** What about the “release of delta-tocopherol by enzymatic hydrolysis” value (glucocerebrosidase) of the same molecule?
**A.** slowly releases delta-tocopherol, with lower kinetics than a reference derivative

**Q.** What about the antioxidant capacity [1] of the same molecule?
**A.** weak antioxidant capacity compared to that of delta-tocopherol
